Reference: US9895346B2, “Applications of substituent benzyloxy group containing ether compounds for preparing antitumor drugs” (Sinochem Corporation, priority 2013, dated 2018)

How the values were obtained:
[1] = system: lung cancer cell line A549; experiment: In vitro cell inhibition assay (crystal violet), lung cancer A549; format: cell-based, human
From the text: (§1) In vitro Cell inhibition assay is as follows:
(§2) The human cancer cell lines used for this assay were bladder cancer J82, T24, prostate cancer LNCap, PC-3, lung cancer A549, H157, H460, H520, colon cancer HCT8, HCT116, RkO, and leukemia HL-60, etc.
(§3) In vitro cell culture technology was selected for the determination of inhibition rate bladder cancer cell lines J82 and T24, prostate cancer cell lines LNCap and PC-3, lung cancer cell lines A549, H157, H460 and H520. 1000 to 3000 cells were inoculated to 24-well plate, followed by addition of 1 mL culture medium well known to researchers in this field to each well, the cells were cultured in 5% incubator for 24 hours at 37° C., then the different concentration compounds and controls were added to each well. It should be noted that the added volume is not more than 0.5% of total volume. After completion of addition, the cells continued being cultured in incubator for one week, the culture medium was removed and washed by cold PBS of 1 mL once, and then fixed for 10 minutes at room temperature with 1% formalin, followed by wash with PBS of 1 mL. After fixation, stain was carried out with 0.1% crystal violet for 30 minutes. 0.1% crystal violet was recycled. The stained cells were washed gently with deionized water, dried at room temperature and kepted. The inhibition rate was calculated according to the foiling equation. The controls are Selumetinib (AZD6244), Gefitinib, Cisplatin. Inhibition rate=number of left cells each treatment/number of left cells of untreated control×100%

[2] = system: lung cancer cell line H460; experiment: In vitro cell inhibition assay (crystal violet), lung cancer H460; format: cell-based, human
From the text: as §1, §2, §3

[3] = system: human leukemia HL-60 cells; experiment: Proliferation inhibition of human leukemia HL-60 cells, MTT method; format: cell-based; conditions: 48 h incubation, OPTI-MEM medium
Method: The inhibition rate of human leukemia HL-60 cells was evaluated by regular MTT method. The human leukemia HL-60 cells were picked up from cell incubator, after washed for twice using PBS, cells were digested by 0.25% trypsin, and then add medium to terminate the digestion. After cells were collected using centrifuge and re-suspended, counting cells under inverted microscope and adding medium to make a density which was 5×10^4 cells/mL. After 100 μL aliquots were added to each well of 96-well microtiter plates, cells were cultured in 5% incubator for overnight at 37° C., then the different concentration compounds were added to each well. After incubation for 48 h, MTT solution was added to each well and plates were then incubated for 4 h. The MTT tetrazolium was reduced to formazan by living cells. Then the formazan crystals were dissolved though adding DMSO to each well. The absorbance was read at 570 nm with a microplate reader.

[4] = system: lung cancer cell line H520; experiment: In vitro cell inhibition assay (crystal violet), lung cancer H520; format: cell-based, human
From the text: as §1, §2, §3

| SMILES | Proliferation inhibitory effect on human leukemia HL-60 cell (%) ([3]; concentration 1 μM) | Proliferation inhibitory effect on human leukemia HL-60 cell (%) ([3]; concentration 10 μM) | Proliferation inhibitory effect on human leukemia HL-60 cell (%) ([3]; concentration 100 μM) | further results |
| --- | --- | --- | --- | --- |
| COC=C(C(=O)OC)c1ccccc1COc1ccc2c(-c3ccc(C)cc3)cc(=O)oc2c1 [28-136] |  |  |  | Inhibition rate on human cancer cells ([1]; A549, 2.5 μM): 100%; Inhibition rate on human cancer cells ([1]; A549, 5.0 μM): 100% |
| COC=C(C(=O)OC)c1ccccc1COc1ccc2c(-c3ccc(OC)cc3)cc(=O)oc2c1 [28-137] |  |  |  | Inhibition rate on human cancer cells ([1]; A549, 2.5 μM): 100%; Inhibition rate on human cancer cells ([1]; A549, 5.0 μM): 100% |
| COC=C(C(=O)OC)c1ccccc1COc1ccc2c(C)cc(=O)oc2c1 [Compound 28-2] | 6.0 | 49.2 | 71.3 | Inhibition rate on human cancer cells ([2]; H460, 5.0 μM): 95% |
| COC=C(C(=O)OC)c1ccccc1COc1ccc2c(C)cc(=O)oc2c1C [Compound 28-3] | 4.1 | 33.4 | 58.8 |  |
| COC=C(C(=O)OC)c1ccccc1COc1ccc2c(C)c(C)c(=O)oc2c1C [Compound 28-6] | 48.2 | 53.0 | 52.0 |  |
| CCc1c(C)c2ccc(OCc3ccccc3C(=COC)C(=O)OC)cc2oc1=O [Compound 28-18] |  |  |  | Inhibition rate on human cancer cells ([1]; A549, 0.5 μM): 90%; Inhibition rate on human cancer cells ([1]; A549, 1.0 μM): 100%; Inhibition rate on human cancer cells ([1]; A549, 2.5 μM): 100%; Inhibition rate on human cancer cells ([1]; A549, 5.0 μM): 100%; Inhibition rate on human cancer cells ([2]; H460, 0.25 μM): 80%; Inhibition rate on human cancer cells ([2]; H460, 0.5 μM): 90%; Inhibition rate on human cancer cells ([2]; H460, 1.0 μM): 95%; Inhibition rate on human cancer cells ([2]; H460, 2.5 μM): 95%; Inhibition rate on human cancer cells ([2]; H460, 5.0 μM): 95%; Inhibition rate on human cancer cells ([4]; H520, 0.25 μM): 50%; Inhibition rate on human cancer cells ([4]; H520, 0.5 μM): 95%; Inhibition rate on human cancer cells ([4]; H520, 1.0 μM): 100%; Inhibition rate on human cancer cells ([4]; H520, 2.5 μM): 100%; Inhibition rate on human cancer cells ([4]; H520, 5.0 μM): 100% |
| COC=C(C(=O)OC)c1ccccc1COc1ccc2cc(C#N)c(=O)oc2c1 [Compound 28-24] | 10.8 | 44.5 | 86.7 |  |
| COC=C(C(=O)OC)c1ccccc1COc1ccc2c(-c3ccc(F)cc3)cc(=O)oc2c1 [Compound 28-38] | 77.5 | 72.9 | 63.7 |  |
| COC=C(C(=O)OC)c1ccccc1COc1ccc2c(C)c(Cc3ccccc3)c(=O)oc2c1 [Compound 28-68] | 54.6 | 62.0 | 84.4 |  |
| COC=C(C(=O)OC)c1ccccc1COc1ccc2c(C)c(C(C)C)c(=O)oc2c1 [Compound 28-71] | 40.9 | 48.2 | 50.3 |  |
| CCCc1c(CCC)c2ccc(OCc3ccccc3C(=COC)C(=O)OC)cc2oc1=O [Compound 28-79] | 28.8 | 53.1 | 71.2 |  |
| COC=C(C(=O)OC)c1ccccc1COc1ccc2c(-c3ccc(Cl)nc3)cc(=O)oc2c1 [Compound 28-124] | 0.5 | 29.3 | 27.8 | Inhibition rate on human cancer cells ([2]; H460, 5.0 μM): 75%; Inhibition rate on human cancer cells ([4]; H520, 5.0 μM): 70% |
| COC=C(C(=O)OC)c1ccccc1COc1ccc2c3c(c(=O)oc2c1)CCC3 [Compound 28-125] | 47.0 | 73.8 | 85.0 |  |
